The source of these data is paper PMC11219860, “A chemogenetic approach for dopamine imaging with tunable sensitivity” (Nature Communications, 2024).

Where two headings read alike, the source gives them in different places.

The subject of one assay is dLight1.3b. Briefly: In vivo single-fiber photometry of dLight1.3b baseline in freely-moving mice. Set-up: species or system mouse. The following applies: DETQ 10 mg/kg i.p. How it is done: For combined locomotion/photometry experiments in the open field (OF) in tethered mice, a 50 × 50 cm arena was used. Fiber photometry was conducted using a Doric photometry rig combined with a filter/mirror minicube set (Doric Lenses), as above. […] Data were sampled at 122 Hz. […] Mice were habituated to the chamber for 3 consecutive days (30 minutes per day). On experimental days, locomotor activity was video recorded and synchronized with fiber photometry signal recording. […] The OF chamber was cleaned with ethanol and water between mice. Recording sessions were repeated at 48 hours intervals. Mouse behavior as well as photometry signals were analyzed with a custom-written MATLAB script. Mouse locomotion was computed using the body center point of the animal. The center zone of the arena was defined automatically during behavior data analysis as the 25 × 25 cm square with the central point aligned to the center of the open field. […] Videos were recorded with a Logitech C270 camera and analyzed with DeepLabCut (version 2.1.8.2)[84] on an existing open field network. Representative traces were generated with the Anymaze (v7.2) software (Stoelting Co.).

In another assay the test system is 5-HT2B. Set-up: method as in Svensson et al., 2017; Hao et al., 2019. The note with it: 10 uM of DETQ; ref Svensson et al., 2017; Hao et al., 2019; cited from earlier work.
In another assay the test system is NAc DRD1-MSNs. Briefly: Footshock-induced NAc DRD1-MSN activity (jGCaMP8m photometry). The following applies: DETQ 10 mg/kg; SCH-23390 0.1 mg/kg i.p.
The target of the next assay is hmDRD1 (Homo sapiens, UniProt P21728). Description: NanoBit complementation assay of mini-Gs recruitment. Type of assay: cell-based. As for the experimental part: (§1) To measure the effect of DETQ on mini-G protein recruitment by different GPCRs we used a Nanoluciferase (NanoBit)-based complementation assay[26],[27]. For this HEK293T cells were seeded in six-well plates (Techno Plastic Products) at a density of 300,000 cells per well and co-transfected with plasmids encoding either hmDRD1, msDRD1, msDRD2, msDRD5, msADRA1a, msβ2AR or ms5HT6 carrying a C-terminally fused SmBiT, in combination with the corresponding mini-G protein probe[78] (mini-Gs: for DRD1, DRD5, β2AR, 5HT6R; mini-Gq: for ADRA1a; or mini-Gi: for DRD2), which were N-terminally fused to LgBiT, in a 1:1 DNA ratio using Effectene transfection reagent (Qiagen). 24 h after transfection cells were detached using Versene (ThermoFisher Scientific), washed, centrifuged (RT, 150 g, 3 min), and resuspended (0.5 × 10^6 cells ml^−1) in Fluorobrite DMEM (ThermoFisher Scientific) complemented with 30 mM HEPES (ThermoFisher Scientific). First, 95 µl of the cell suspension were added into each well of a white flat-bottom 96-well OptiPlate (PerkinElmer), then 25 µl of a 20-fold dilution of Nano-Glo reagent in LCS buffer (Promega) and last either 5 ul of pure Fluorobrite-DMEM or 5 ul of DETQ diluted in Fluorobrite DMEM (final concentration 100 nM for DRD1; 1 µM for all other receptors). The plate was incubated at 37 °C for 30 min, before the luminescence signal was measured at 37 °C using a Tecan Spark plate reader before and after the manual addition of 25 µl of either ligand solution (final concentrations ranging from 1 nM to 100 µM), pure Fluorobrite-DMEM or 25 µl of a DETQ solution (1 µM final concentration).
(§2) For in vitro luminescence assays, ligand traces were divided by buffer traces, the area under the curve for each trace was calculated using GraphPad Prism, values were normalized and fitted as dose response curve. The change in luminescence (∆L/L0) upon addition of different ligands was calculated as follows: (Lt – L0)/L0, with Lt being the Luminescence at ten timepoints t immediately after ligand application, and L0 being the luminescence of ten timepoints before ligand application. The statistical significance was determined using Welch’s ANOVA followed by Dunnett’s multiple comparison test (comparison of ligand or vehicle to ligand). For ex vivo imaging experiments, statistical analyses were performed in Prism (GraphPad) using independent samples t-test or nonparametric Mann-Whitney U-test when assumption of normality was violated (assessed using Schapiro-Wilk’s test). Curve fitting parameters were compared by extra sum-of-squares F test. For in vivo imaging experiments, statistical tests were paired and unpaired t-tests (two-tailed) and repeated-measures ANOVA for parametric data, while they were Wilcoxon rank sum tests or Mann-Whitney for non-parametric data. Sidak or Tukey post-hoc tests correcting for multiple comparisons were used in the case of significant interactions in ANOVA. All p-values are indicated in the Results section. […] No statistical methods were used to predetermine sample size. No data were excluded from the analyses. Group allocations used in this study were randomly assigned to animals and/or cultured cells. The Investigators were not blinded to allocation during experiments and outcome assessment.

Assay [1] concerns the target T1, msDRD1 (Mus musculus, UniProt Q61616).
T1 construct: expressed in transfected cells; host or cells: HEK293T
Described as above. In kind it is cell-based. As for the experimental part: as §1, §2

The target of the next assay is T2, msDRD5 (Mus musculus, UniProt Q8BLD9).
T2 construct: expressed in transfected cells; host or cells: HEK293T
Described as above. Type of assay: cell-based. How it is done: as §1, §2

In another assay the target is T3, ms5HT6 (Mus musculus, UniProt Q9R1C8).
T3 construct: expressed in transfected cells; host or cells: HEK293T
Described as above. In kind it is cell-based. As for the experimental part: as §1, §2

The next assay has as its target T4, msβ2AR (Mus musculus, UniProt P18762).
T4 construct: expressed in transfected cells; host or cells: HEK293T
The assay is described as above. In kind it is cell-based. As for the experimental part:
as §1, §2

Another assay concerns human DRD1 (hmDRD1). The following applies: cited from earlier work.
The conditions of assay [2]: 10 and 30 mg/kg per os, ref Svensson et al 2017, cited from earlier work.
Assay [3] deals with T1, msDRD1. The note with it: cited from earlier work.

T1 sequence (Q61616 whole entry): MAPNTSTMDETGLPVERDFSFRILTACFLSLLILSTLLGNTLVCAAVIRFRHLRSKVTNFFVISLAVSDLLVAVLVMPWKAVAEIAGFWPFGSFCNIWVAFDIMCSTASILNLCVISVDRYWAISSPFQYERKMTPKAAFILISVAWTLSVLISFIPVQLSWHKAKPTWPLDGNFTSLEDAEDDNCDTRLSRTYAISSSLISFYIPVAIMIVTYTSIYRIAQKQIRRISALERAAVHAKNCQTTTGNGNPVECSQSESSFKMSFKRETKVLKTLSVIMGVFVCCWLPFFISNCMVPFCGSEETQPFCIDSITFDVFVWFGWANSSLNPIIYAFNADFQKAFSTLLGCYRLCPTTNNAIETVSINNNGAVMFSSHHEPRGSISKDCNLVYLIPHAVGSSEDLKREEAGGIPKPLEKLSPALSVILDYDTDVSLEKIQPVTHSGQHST
T2 sequence (Q8BLD9 whole entry): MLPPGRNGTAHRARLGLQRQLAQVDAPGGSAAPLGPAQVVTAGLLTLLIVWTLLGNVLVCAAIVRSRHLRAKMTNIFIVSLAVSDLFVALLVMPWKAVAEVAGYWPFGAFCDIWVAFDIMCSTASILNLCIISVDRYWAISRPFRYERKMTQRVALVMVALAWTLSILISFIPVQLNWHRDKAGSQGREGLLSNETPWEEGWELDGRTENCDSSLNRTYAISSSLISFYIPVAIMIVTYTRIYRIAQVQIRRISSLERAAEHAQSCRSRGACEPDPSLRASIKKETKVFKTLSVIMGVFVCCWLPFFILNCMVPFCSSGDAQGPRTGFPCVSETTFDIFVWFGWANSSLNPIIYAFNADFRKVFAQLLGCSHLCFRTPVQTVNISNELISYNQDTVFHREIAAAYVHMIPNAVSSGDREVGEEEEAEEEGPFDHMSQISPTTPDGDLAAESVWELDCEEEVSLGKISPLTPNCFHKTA
T4 sequence (P18762 whole entry): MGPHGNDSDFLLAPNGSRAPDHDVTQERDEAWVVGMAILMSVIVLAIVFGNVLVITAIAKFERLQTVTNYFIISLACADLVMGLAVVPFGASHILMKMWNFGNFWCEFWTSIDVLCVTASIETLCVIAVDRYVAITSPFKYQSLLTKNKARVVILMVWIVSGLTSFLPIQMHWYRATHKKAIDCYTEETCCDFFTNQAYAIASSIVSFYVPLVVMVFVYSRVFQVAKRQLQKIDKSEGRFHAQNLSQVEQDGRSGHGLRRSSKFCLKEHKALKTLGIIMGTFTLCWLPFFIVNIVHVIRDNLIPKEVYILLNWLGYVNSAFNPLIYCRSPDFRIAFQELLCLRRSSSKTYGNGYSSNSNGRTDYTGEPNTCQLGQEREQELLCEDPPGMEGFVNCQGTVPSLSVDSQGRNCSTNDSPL
Chain of hmDRD1 (P21728 whole entry, the tested form may be a part): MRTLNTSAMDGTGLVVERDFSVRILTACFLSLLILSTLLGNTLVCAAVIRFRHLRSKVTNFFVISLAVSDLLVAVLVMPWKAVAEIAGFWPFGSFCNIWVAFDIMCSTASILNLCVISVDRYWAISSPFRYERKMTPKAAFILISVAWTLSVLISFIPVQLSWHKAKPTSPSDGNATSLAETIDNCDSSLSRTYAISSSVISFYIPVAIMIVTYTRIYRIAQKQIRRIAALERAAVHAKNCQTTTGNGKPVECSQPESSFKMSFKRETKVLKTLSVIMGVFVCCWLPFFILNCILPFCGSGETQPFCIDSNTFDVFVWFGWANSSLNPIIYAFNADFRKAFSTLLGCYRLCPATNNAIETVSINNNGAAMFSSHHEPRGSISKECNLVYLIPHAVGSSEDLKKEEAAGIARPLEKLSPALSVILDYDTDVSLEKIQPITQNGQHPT
T3 sequence (Q9R1C8 whole entry): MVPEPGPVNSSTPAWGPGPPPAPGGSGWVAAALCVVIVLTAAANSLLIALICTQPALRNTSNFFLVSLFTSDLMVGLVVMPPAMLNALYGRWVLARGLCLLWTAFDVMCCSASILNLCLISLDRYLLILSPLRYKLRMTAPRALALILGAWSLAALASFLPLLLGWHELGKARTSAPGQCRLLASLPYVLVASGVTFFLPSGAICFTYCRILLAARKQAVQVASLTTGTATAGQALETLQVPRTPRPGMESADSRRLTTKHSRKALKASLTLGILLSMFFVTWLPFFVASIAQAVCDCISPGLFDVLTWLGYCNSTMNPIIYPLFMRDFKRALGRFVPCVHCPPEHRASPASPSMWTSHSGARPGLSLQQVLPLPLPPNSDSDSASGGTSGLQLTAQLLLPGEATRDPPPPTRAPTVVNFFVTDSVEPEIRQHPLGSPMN
Method for NAc DRD1-MSNs: Cue-reward paradigm (NAc recordings) was carried out in an operant chamber within a sound-attenuating box with low red light illumination (30 Lux). […] During the next session mice were trained to initiate reward delivery via licking. […] During expert sessions CS-US pairings were repeated 20 times per session ( ~ 30 min for each session). Mice underwent a total of 12 sessions for cue-reward learning. 10 minutes before each session drugs were injected i.p. […] The rewards were delivered from 10 to 40 min post vehicle or DETQ injection. Chambers and lick ports were sanitized with ethanol between mice. For all sessions, lick data and photometry recordings were simultaneously obtained; licking behaviour was detected by a capacity-based sensor. Latency to reward-anticipatory licking was calculated as the time between the CS and lick onset. The lick proportion was calculated as the percent time mice spent licking during CS presentation divided by the percent time mice spent licking during the rest of the session (without CS). […] Fiber photometry recordings were analyzed using custom-written Matlab scripts. […] Change in fluorescence, ΔF/F0 (%), was defined as (F-F0)/F0 x 100, where F represents the fluorescent signal (465-nm) at each time point. F0 was calculated by applying a least-squares linear fit (polyfit) to the 405-nm signal to align with the 465-nm signal. […]

As for `C[C@H]1c2cccc(C(C)(C)O)c2C[C@H](CO)N1C(=O)Cc1c(Cl)cccc1Cl` [DETQ, 2-(2,6-dichlorophenyl)-1-((1S,3R)-3-(hydroxymethyl)-5-(2-hydroxypropan-2-yl)-1-methyl-3,4-dihydroisoquinolin-2(1H)-yl)ethan-1-one], the figures for the “increase in sensor baseline” value in the assay with dLight1.3b (NAc) and in the assay with dLight1.3b (PFC) were 15–20 % ∆F/F0 and 2–4 % ∆F/F0, respectively. In addition, the “inhibition of ligand binding” value in the assay on 5-HT2B is 48%. The “footshock-induced activity in NAc DRD1-MSNs” value with NAc DRD1-MSNs is reported as “remained unaffected”. Further, the “allosteric modulator mode: potentiation of mini-Gs recruitment during DA titration” value on hmDRD1 (DETQ 100 nM) is “strong and significant potentiation”; at msDRD1 [1] (DETQ 100 nM), “potentiation of mini-Gs recruitment only in the case of the hmDRD1”. The “agonist mode: direct agonist effect” value at hmDRD1 (DETQ 1 µM alone), on msDRD1 [1] (DETQ 1 µM alone), on msDRD5 (DETQ 1 µM alone), on ms5HT6 (DETQ 1 µM alone) and on msβ2AR (DETQ 1 µM alone) was “no direct agonist effect” in each case. For the same molecule, the “allosteric modulator mode: effect on agonist dose-response” value on msDRD5 (DETQ 1 µM, DA) is given as “No allosteric effect”; on ms5HT6 (DETQ 1 µM, 5HT), “No allosteric effect”; on msβ2AR (DETQ 1 µM, NE), “No allosteric effect”. Also, the Kb in the assay with human DRD1 (hmDRD1) is 11.4 nM; at msDRD1 [3], 312 nM. Also, in the assay with human DRD1 (hmDRD1) (human clones, ref Hao et al., 2019, Wang et al., 2018), the “maximal potentiation of dopamine” value is listed as 75-85%. Besides, the “in vitro potency as a D1PAM at the hD1 receptor” value with human DRD1 (hmDRD1) (ref Svensson et al., 2017, Hao et al., 2019) is recorded as 11 nM. Besides, the behavioral activity result in assay [2] (hD1 mice) is listed as “pronounced behavioral activation”; in assay [2] (wild type mice) it was “no behavioral activity”. On msDRD1 [3], the “fold less potent on msDRD1 than on hmDRD1” value is over 30 fold. On msDRD1 [3] (potentiation of dopamine induced activation of cAMP, ref Hao et al., 2019, Wang et al., 2018), the “selectivity for human vs mouse D1 in potentiator mode” value is reported as 30 x. In addition, the “partial potentiation of dopamine (% of max potentiation)” value at msDRD1 [3] (rodent (rat or mouse), ref Hao et al., 2019, Wang et al., 2018) was 45-53%.
